In patent US20050090522A1 (priority 2001, published 2005):
pEC50: −log10 of the molar value. Where two headings read alike, the source gives them in different places.

Legend:
HIV-1 = HIV-1 single-round infectious luciferase reporter virus (pseudotype) assay in HeLa CD4 CCR5 cells; format: cell-based
How it was run: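 HeLa CD4 CCR5 cells (5×10^4/well, DMEM + 10% FBS) were treated with compound (final <10 μM) and infected with single-round luciferase reporter virus made in 293 cells, at MOI ~0.01. Luciferase was read 72 h post infection. EC50 came from 10-concentration percent-inhibition curves fitted to a four-parameter logistic model.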

HeLa cells = assay: Cytotoxicity assay in HeLa cells (MTT dye reduction, CC50); conditions: cytotoxicity; Yes = CC50 above 100 uM, No = not
Protocol: • Virus production—Human embryonic Kidney cell line, 293, propagated in Dulbecco's Modified Eagle Medium (Life Technologies, Gaithersburg, Md.) containing 10% fetal Bovine serum (FBS, Sigma, St. Louis, Mo.). • Virus infection—Human epithelial cell line, HeLa, expressing the HIV-1 receptors CD4 and CCR^5 was propagated in Dulbecco's Modified Eagle Medium (Life Technologies, Gaithersburg, Md.) containing 10% fetal Bovine serum (FBS, Sigma, St. Louis, Mo.) and supplemented with 0.2 mg/mL Geneticin (Life Technologies, Gaithersburg, Md.) and 0.4 mg/mL Zeocin (Invitrogen, Carlsbad, Calif.). […] Transfections were performed using lipofectAMINE PLUS reagent as described by the manufacturer (Life Technologies, Gaithersburg, Md.). Experiment • 1. Compound was added to HeLa CD4 CCR5 cells plated in 96 well plates at a cell density of 5×10^4 cells per well in 100 μl Dulbecco's Modified Eagle Medium containing 10% fetal Bovine serum at a concentration of […]. • 2. 100 μl of single-round infectious reporter virus in Dulbecco's Modified Eagle Medium was then added to the plated cells and compound at an approximate multiplicity of infection (MOI) of 0.01, resulting in a final volume of 200 μl per well and a final compound concentration of <10 μM. • 3. Samples were harvested 72 h after infection. • 4. Viral infection was monitored by measuring luciferase expression from viral DNA in the infected cells using a luciferase reporter gene assay kit (Roche Molecular Biochemicals, Indianapolis, Ind.). Infected cell supernatants were removed and 50 μl of Dulbecco's Modified Eagle Medium (without phenol red) and 50 μl of luciferase assay reagent reconstituted as described by the manufacturer (Roche Molecular Biochemicals, Indianapolis, Ind.) was added per well. Luciferase activity was then quantified by measuring luminescence using a Wallac microbeta scintillation counter. • 5. […] An EC50 provides a method for comparing the antiviral potency of the compounds of this invention. The effective concentration for fifty percent inhibition (EC50) was calculated with the Microsoft Excel Xlfit curve fitting software. For each compound, curves were generated from percent inhibition calculated at 10 different concentrations by using a four paramenter logistic model (model 205). Table 1 is the key for the data in Tables 2-4. Cytoxicity assays were conducted with the same HeLa using methodology well known in the art.
(§1) For accuracy, the determined measure of viral inhibition is an EC50; but the minimum plasma concentrations which should be maintained in a patient is generally believed to be at least four or five fold higher. […] Lower is better. • 4) Estimating potential exposure in man by measuring parameters such as AUC and rate of clearance by oral and iv dosing in rats. High exposure and low clearance was desired.

[1] = Metabolic stability in pooled human liver microsomes (HLM); conditions: pooled human liver microsomes, 3 μM drug; Low/Intermediate/High
Protocol: Metabolic Stability Studies of compounds in Liver Microsomes. The metabolic stability of compounds were investigated in pooled liver microsomes from humans. The human liver microsomes were obtained from BD Gentest (Lot #16, Woburn, Mass.) with a protein concentration of 20 mg/ml and a total cytochrome P450 (CYP) concentration of 0.55 nmol/mg protein. A stock solution of drug was prepared in acetonitrile at 1 mM. […] The incubation media consisted of potassium phosphate buffer (0.1 M, pH 7.4), liver microsomes (final concentration 0.9 mg/ml), magnesium chloride (0.033 mM), and a NADPH-regenerating system. […] The test compound was pre-incubated in the media for 2 min. The reaction was initiated by the addition of the cofactors. The incubation was carried out at 37° C. for 10 min. The reaction was terminated by drawing an aliquot of 100 μL from the incubation and adding into 200 μL of acetonitrile containing a reference compound as an […] analytical standard. Following vortex-mixing and centrifugation, an aliquot of 10 μL of the supernatant was analyzed by LC/MS.
GUIDELINES can be used to categorized test substances as low, intermediate or highly cleared compounds.
as §1
The stability of compounds were also evaluated to determine metabolic stability when incubated in in vitro preparations of human liver microsomes (HLM). This is one commonly used predictive system for evaluating the potential for human metabolism and projecting clearance rates in man. Compounds with low clearance rates were most desireable.

[2] = Human immunodeficiency virus 1, HeLa-CD4/CCR5, read-out: EC50 Group from TABLE 1, HeLa CD4 CCR5 cells, single-round infectious luciferase reporter virus
[3] = Human immunodeficiency virus 1, HeLa-CD4/CCR5, read-out: EC50 category, HIV-1 single-round reporter virus assay, category 1/2/3 per Table A1 key
[4] = Human immunodeficiency virus 1, HeLa-CD4/CCR5, read-out: EC50 Group from Table 1, Table 2-1, HeLa CD4 CCR5 cells, single-round luciferase reporter virus

SMILES	pEC50 (HIV-1; [2])	pEC50 (HIV-1; [3])	CC50 > 100 uM (HeLa cells)	HLM predicted human clearance class [1]	pEC50 (HIV-1; [4])	pEC50 (HIV-1; Human immunodeficiency virus 1, HeLa-CD4/CCR5, read-out: EC50 Group from Table 1, Table 4, HeLa CD4 CCR5 cells, single-round luciferase reporter virus)
O=C(C(=O)N1CCN(C(=O)c2ccccc2)CC1)c1c[nH]c2c(-c3cncnc3)ncc(F)c12 [Example 42, 1-benzoyl-4-[(4-fluoro-7-(pydin-5-yl)-6-azaindol-3-yl)-oxoacetyl]piperazine]	> 6.00	6.00 to 9.70	Yes	Low (0-0.100)		
Cc1ncn(-c2ncc(F)c3c(C(=O)C(=O)N4CCN(C(=O)c5ccccc5)[C@H](C)C4)c[nH]c23)n1 [Example 315]		> 9.70	Yes	Low (0-0.100)	> 6.00	
O=C(C(=O)N1CCN(C(=O)c2ccccc2)CC1)c1c[nH]c2c(-c3ncco3)ncc(F)c12 [Example 140]	> 6.00	6.00 to 9.70	Yes	Intermediate (0.101-0.200)		
O=C(C(=O)N1CCN(C(=O)c2ccccc2)CC1)c1c[nH]c2c(-c3c[nH]nn3)ncc(F)c12 [Example 299]	> 6.00	> 9.70	No	Low (0-0.100)		
Nc1ncn(-c2ncc(F)c3c(C(=O)C(=O)N4CCN(C(=O)c5ccccc5)CC4)c[nH]c23)n1 [Example 313]	> 6.00	> 9.70	Yes	Low (0-0.100)		
O=C(C(=O)N1CCN(C(=O)c2ccccc2)CC1)c1c[nH]c2c(-n3cncn3)ccnc12 [Example 207, 1-(4-benzoyl-piperazin-1-yl)-2-(7-[1,2,4]triazol-1-yl-1H-pyrrolo[3,2-b]pyridin-3-yl)-ethane-1,2-dione]		6.00 to 9.70	Yes	Low (0-0.100)		> 6.00
COc1cnc(-c2cc[nH]n2)c2[nH]cc(C(=O)C(=O)N3CCN(C(=O)c4ccccc4)CC3)c12 [Example 39, 1-benzoyl-4-[(4-methoxy-7-(pyrazol-3-yl)-6-azaindol-3-yl)-oxoacetyl]piperazine]	> 6.00	6.00 to 9.70	No	Intermediate (0.101-0.200)		
COCc1ncn(-c2ncc(OC)c3c(C(=O)C(=O)N4CCN(C(=O)c5ccccc5)[C@H](C)C4)c[nH]c23)n1 [Example 324]		> 9.70	Yes	Low (0-0.100)	> 6.00	
C[C@@H]1CN(C(=O)c2ccccc2)CCN1C(=O)C(=O)c1c[nH]c2c(-n3cccn3)ncc(Br)c12 [Example 139]	> 6.00	6.00 to 9.70	Yes	High (0.201-0.300)		
COc1cnc(-n2ccc(N)n2)c2[nH]cc(C(=O)C(=O)N3CCN(C(=O)c4ccccc4)CC3)c12 [Example 251, 1-benzoyl-4-[(4-methoxy-7-(3-amino-pyrazol-1-yl)-6-azaindol-3-yl)-oxoacetyl]piperazine]	> 6.00	> 9.70	Yes	Low (0-0.100)		
COc1cnc(-n2cnc(N)n2)c2[nH]cc(C(=O)C(=O)N3CCN(C(=O)c4ccccc4)[C@H](C)C3)c12 [Example 258, (R)-1-benzoyl-2-methyl-4-[(4-methoxy-7-(3-amino-1,2,4-triazol-1-yl)-6-azaindol-3-yl)-oxoacetyl]piperazine]		> 9.70	Yes	Low (0-0.100)	> 6.00	
COc1cnc(-n2cnc(C)c2)c2[nH]cc(C(=O)C(=O)N3CCN(C(=O)c4ccccc4)CC3)c12 [Example 318]	> 6.00	6.00 to 9.70	Yes	Low (0-0.100)		
COc1cnc(-c2ncco2)c2[nH]cc(C(=O)C(=O)N3CCN(C(=O)c4ccccc4)CC3)c12 [Example 74, 1-benzoyl-4-[(4-methoxy-7-(oxazol-2-yl)-6-azaindol-3-yl)-oxoacetyl]piperazine]	> 6.00	6.00 to 9.70	No	Intermediate (0.101-0.200)		
O=C(C(=O)N1CCN(C(=O)c2ccccc2)CC1)c1c[nH]c2c(N3CCOCC3)ncc(F)c12 [Example 222]	> 6.00	6.00 to 9.70	Yes	Low (0-0.100)		
C[C@@H]1CN(C(=O)C(=O)c2c[nH]c3c(-n4ccnn4)ncc(F)c23)CCN1C(=O)c1ccccc1 [Example 314]		> 9.70	Yes	Low (0-0.100)	> 6.00	
O=C(C(=O)N1CCN(C(=O)c2ccccc2)CC1)c1c[nH]c2c(-c3ncon3)ncc(F)c12 [Example 146]	> 6.00	6.00 to 9.70	Yes	Intermediate (0.101-0.200)		
Cn1ccc(-c2ncc(F)c3c(C(=O)C(=O)N4CCN(C(=O)c5ccccc5)CC4)c[nH]c23)n1 [Example 29, 1-benzoyl-4-[(4-fluoro-7-(1-methyl-pyrazol-3-yl)-6-azaindol-3-yl)-oxoacetyl]piperazine]	> 6.00	6.00 to 9.70	No	High (0.201-0.300)		
